Data from BindingDB's records for doi:10.1021/jm040903t (Sapienza University of Rome, 2005).

Experiments:
[1] = target: T1, Amine oxidase [flavin-containing] B (Bos taurus, UniProt P56560); assay: MAO Inhibition Assay; conditions: pH 7.4; 38 °C
T1 sequence (P56560 whole entry): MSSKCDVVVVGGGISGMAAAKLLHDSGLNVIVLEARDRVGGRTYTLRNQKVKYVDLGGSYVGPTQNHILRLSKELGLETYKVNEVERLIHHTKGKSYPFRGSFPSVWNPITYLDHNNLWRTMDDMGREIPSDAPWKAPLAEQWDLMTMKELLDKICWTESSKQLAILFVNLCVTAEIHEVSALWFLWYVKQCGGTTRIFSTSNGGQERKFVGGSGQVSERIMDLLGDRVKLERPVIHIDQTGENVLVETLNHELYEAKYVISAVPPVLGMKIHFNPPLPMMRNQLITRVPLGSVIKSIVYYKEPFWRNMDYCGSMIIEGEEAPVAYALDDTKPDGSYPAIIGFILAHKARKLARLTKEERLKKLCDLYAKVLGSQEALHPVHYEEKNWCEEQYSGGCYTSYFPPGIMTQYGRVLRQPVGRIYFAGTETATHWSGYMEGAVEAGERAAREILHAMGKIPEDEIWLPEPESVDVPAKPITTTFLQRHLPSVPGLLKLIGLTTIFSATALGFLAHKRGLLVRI
Method: (§1) MAO A and MAO B activities were determined […] using kynuramine as substrates. Fluorimetric measurements were recorded with a Perkin-Elmer LS 50B spectrofluorimeter. Dixon plots were used to estimate the inhibition constant (Ki) of the inhibitors. The data are the mean values of three or more experiments performed in duplicate.

[2] = target: T2, Amine oxidase [flavin-containing] A (Bos taurus, UniProt P21398); assay: MAO Inhibition Assay; conditions: pH 7.4; 38 °C
T2 sequence (P21398 whole entry): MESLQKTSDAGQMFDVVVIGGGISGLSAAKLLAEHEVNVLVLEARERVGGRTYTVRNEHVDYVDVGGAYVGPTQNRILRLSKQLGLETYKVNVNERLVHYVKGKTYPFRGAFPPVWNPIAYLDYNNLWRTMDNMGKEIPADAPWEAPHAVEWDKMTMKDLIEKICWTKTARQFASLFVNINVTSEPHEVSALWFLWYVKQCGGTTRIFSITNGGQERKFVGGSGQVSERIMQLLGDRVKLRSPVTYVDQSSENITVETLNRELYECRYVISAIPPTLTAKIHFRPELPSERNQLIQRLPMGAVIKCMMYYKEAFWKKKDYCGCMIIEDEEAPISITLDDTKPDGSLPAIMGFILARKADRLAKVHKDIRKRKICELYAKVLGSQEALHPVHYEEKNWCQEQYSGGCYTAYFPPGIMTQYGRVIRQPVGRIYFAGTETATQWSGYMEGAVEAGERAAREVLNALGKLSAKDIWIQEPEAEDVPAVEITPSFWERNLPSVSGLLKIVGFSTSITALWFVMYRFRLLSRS
Method: as §1

Row | Ki [1] | Ki [2] | Compound
1 | 1.5 nM | – | Cc1ccc(C2=NN(C(N)=S)C(c3ccc(Cl)cc3)C2)cc1 (configuration not stated) [5-(4-chlorophenyl)-3-(4-methylphenyl)-4,5-dihydro-1H-pyrazole-1-carbothioamide]
2 | – | 5 nM | NC(=S)N1N=C(c2ccc(F)cc2)C[C@H]1c1ccc(Cl)cc1 [(5S)-5-(4-chlorophenyl)-3-(4-fluorophenyl)-4,5-dihydro-1H-pyrazole-1-carbothioamide]
